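Where inhibition never reached the appropriate level, the endpoint shown equals the highest concentration tested. Otherwise, values were interpolated linearly from a five-concentration, 48-hour dose response in 96-well plates. GI50 is the concentration that inhibits growth by half.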 Calls of active or inactive are those of the source. No stated cut-off is given here; in the data, active = GI50 up to about 1.1 µM and inactive = higher.
Columns and labels:
Experiment in all cases: inhibition of tumour cell growth, NCI panel, 48 h
[1] = tested on: SK-MEL-2
[2] = tested on: SN12C
[3] = tested on: UACC-62
[4] = tested on: HL-60
[5] = tested on: SF-268
[6] = tested on: MOLT-4
[7] = tested on: HOP-92
[8] = tested on: EKVX
[9] = tested on: UACC-257
[10] = tested on: SK-MEL-28
[11] = tested on: OVCAR-4
[12] = tested on: Hs-578T
[13] = tested on: SF-295
[14] = tested on: IGROV-1
[15] = tested on: COLO 205
[16] = tested on: SF-539
[17] = tested on: NCI-H23
[18] = tested on: OVCAR-8
[19] = tested on: SNB-19
[20] = tested on: HOP-62
[21] = tested on: 786-0
[22] = tested on: A498
[23] = tested on: HCC 2998
[24] = tested on: K562
[25] = tested on: PC-3
[26] = tested on: RPMI-8226
[27] = tested on: NCI-H226
[28] = tested on: SK-MEL-5
[29] = tested on: U-251
[30] = tested on: HCT-15
[31] = tested on: ACHN
[32] = tested on: M14
[33] = tested on: NCI/ADR-RES
[34] = tested on: MCF7
[35] = tested on: DU-145
[36] = tested on: MDA-N
[37] = tested on: NCI-H522
[38] = tested on: HT-29
[39] = tested on: SR
[40] = tested on: Malme-3M
[41] = tested on: TK-10
[42] = tested on: OVCAR-3
[43] = tested on: LOX IMVI
[44] = tested on: CAKI-1
[45] = tested on: KM12
[46] = tested on: NCI-H460
[47] = tested on: A549
[48] = tested on: MDA-MB-231
[49] = tested on: T47D
[50] = tested on: SW-620
[51] = tested on: CCRF-CEM
[52] = tested on: HCT-116
[53] = tested on: BT-549
[54] = tested on: SK-OV-3
[55] = tested on: UO-31
[56] = tested on: RXF 393
[57] = tested on: MDA-MB-435
[58] = tested on: OVCAR-5
[59] = tested on: SNB-75

## S=C1NNC(=S)NN1
[1]
  GI50: > 1 µM (active)
[2]
  GI50: 0.198 µM (active)
[3]
  GI50: 0.296 µM (active)
[4]
  GI50: > 1 µM (active)
[5]
  GI50: 0.387 µM (active)
[6]
  GI50: 0.258 µM (active)
[7]
  GI50: > 1 µM (active)
[8]
  GI50: > 1 µM (active)
[9]
  GI50: > 1 µM (active)
[10]
  GI50: > 1 µM (active)
[11]
  GI50: > 1 µM (active)
[12]
  GI50: 0.697 µM (active)
[13]
  GI50: 0.219 µM (active)
[14]
  GI50: 0.436 µM (active)
[15]
  GI50: > 1 µM (active)
[16]
  GI50: > 1 µM (active)
[17]
  GI50: 0.251 µM (active)
[18]
  GI50: > 1 µM (active)
[19]
  GI50: > 1 µM (active)
[20]
  GI50: 0.292 µM (active)
[21]
  GI50: > 1 µM (active)
[22]
  GI50: > 1 µM (active)
[23]
  GI50: > 1 µM (active)
[24]
  GI50: 0.178 µM (active)
[25]
  GI50: > 1 µM (active)
[26]
  GI50: 0.288 µM (active)
[27]
  GI50: > 1 µM (active)
[28]
  GI50: 0.887 µM (active)
[29]
  GI50: 0.583 µM (active)
[30]
  GI50: > 1 µM
[31]
  GI50: 0.582 µM (active)
[32]
  GI50: 0.533 µM (active)
[33]
  GI50: > 1 µM (active)
[34]
  GI50: 0.328 µM (active)
[35]
  GI50: 0.316 µM (active)
[36]
  GI50: > 1 µM (active)
[37]
  GI50: 0.432 µM (active)
[38]
  GI50: 0.23 µM (active)
[39]
  GI50: 0.239 µM (active)
[40]
  GI50: 0.594 µM (active)
[41]
  GI50: > 1 µM (active)
[42]
  GI50: > 1 µM (active)
[43]
  GI50: 0.18 µM (active)
[44]
  GI50: 0.225 µM (active)
[45]
  GI50: > 1 µM (active)
[46]
  GI50: > 1 µM (active)
[47]
  GI50: > 1 µM (active)
[48]
  GI50: > 1 µM (active)
[49]
  GI50: 0.951 µM (active)
[50]
  GI50: 0.218 µM (active)
[51]
  GI50: 0.342 µM (active)
[52]
  GI50: 0.23 µM (active)
[53]
  GI50: 0.522 µM (active)
[54]
  GI50: > 1 µM (active)
[55]
  GI50: > 1 µM (active)

## CC(C)(C)OC(=O)N(CCCN)CCCCN(CCCN)C(=O)OC(C)(C)C
[1]
  GI50: > 100 µM (inactive)
[3]
  GI50: > 100 µM (inactive)
[4]
  GI50: > 100 µM (inactive)
[5]
  GI50: > 100 µM (inactive)
[6]
  GI50: > 100 µM (inactive)
[56]
  GI50: > 100 µM (inactive)
[7]
  GI50: > 100 µM (inactive)
[8]
  GI50: > 100 µM (inactive)
[9]
  GI50: > 100 µM (inactive)
[57]
  GI50: > 100 µM (inactive)
[10]
  GI50: > 100 µM (inactive)
[11]
  GI50: > 100 µM (inactive)
[12]
  GI50: > 100 µM (inactive)
[13]
  GI50: > 100 µM (inactive)
[14]
  GI50: > 100 µM (inactive)
[15]
  GI50: > 100 µM (inactive)
[16]
  GI50: > 100 µM (inactive)
[17]
  GI50: > 100 µM (inactive)
[18]
  GI50: > 100 µM (inactive)
[19]
  GI50: > 100 µM (inactive)
[20]
  GI50: > 100 µM (inactive)
[21]
  GI50: > 100 µM (inactive)
[22]
  GI50: > 100 µM (inactive)
[23]
  GI50: > 100 µM (inactive)
[24]
  GI50: > 100 µM (inactive)
[25]
  GI50: > 100 µM (inactive)
[58]
  GI50: > 100 µM (inactive)
[26]
  GI50: > 100 µM (inactive)
[27]
  GI50: > 100 µM (inactive)
[28]
  GI50: > 100 µM (inactive)
[29]
  GI50: > 100 µM (inactive)
[30]
  GI50: > 100 µM
[31]
  GI50: > 100 µM (inactive)
[32]
  GI50: > 100 µM (inactive)
[33]
  GI50: > 100 µM (inactive)
[34]
  GI50: > 100 µM (inactive)
[35]
  GI50: > 100 µM (inactive)
[37]
  GI50: > 100 µM (inactive)
[38]
  GI50: > 100 µM (inactive)
[39]
  GI50: > 100 µM (inactive)
[41]
  GI50: > 100 µM (inactive)
[42]
  GI50: > 100 µM (inactive)
[43]
  GI50: > 100 µM (inactive)
[44]
  GI50: > 100 µM (inactive)
[45]
  GI50: > 100 µM (inactive)
[46]
  GI50: > 100 µM (inactive)
[47]
  GI50: > 100 µM (inactive)
[49]
  GI50: > 100 µM (inactive)
[50]
  GI50: > 100 µM (inactive)
[51]
  GI50: > 100 µM (inactive)
[52]
  GI50: > 100 µM (inactive)
[53]
  GI50: > 100 µM (inactive)
[59]
  GI50: > 100 µM (inactive)
[54]
  GI50: > 100 µM (inactive)
[55]
  GI50: > 100 µM (inactive)
